# Article PMC5218480 (PLoS ONE, 2017)
# System: MV-4-11 cells
# Assay: Gene expression microarray analysis (Affymetrix PrimeView) and GSEA
# Assay type: cell-based, human
# Set-up: RFU PODN (11730768_x_at) / Fold change /veh PODN (11730768_x_at) / RFU LINC00158 (11744669_a_at) / Fold change /veh LINC00158 (11744669_a_at) / RFU DUSP10 (11751237_a_at) / Fold change /veh DUSP10 (11751237_a_at) / RFU ID3 (11757404_x_at) / Fold change /veh ID3 (11757404_x_at) / RFU PLEKHG5 (11737974_s_at) / Fold change /veh PLEKHG5 (11737974_s_at) / RFU LRRC4B (11730491_at) / Fold change /veh LRRC4B (11730491_at) / RFU GIMAP4 (11747438_a_at) / Fold change /veh GIMAP4 (11747438_a_at) / RFU KRT8 (11758183_x_at) / Fold change /veh KRT8 (11758183_x_at) / RFU CNN1 (11734310_a_at) / Fold change /veh CNN1 (11734310_a_at) / RFU VPS37D (11726825_at) / Fold change /veh VPS37D (11726825_at) / RFU C10orf10 (11716522_x_at) / Fold change /veh C10orf10 (11716522_x_at) / RFU KIR2DL2 /// KIR2DL4 /// KIR2DL5A /// KIR2DL5B /// KIR2DS1 /// KIR2DS2 /// KIR2DS3 /// KIR2DS4 /// KIR3DL3 /// KIR3DL3 /// KIR3DS1 (11738374_at) / Fold change /veh KIR2DL2 /// KIR2DL4 /// KIR2DL5A /// KIR2DL5B /// KIR2DS1 /// KIR2DS2 /// KIR2DS3 /// KIR2DS4 /// KIR3DL3 /// KIR3DL3 /// KIR3DS1 (11738374_at) / RFU C1QL1 (11718748_at) / Fold change /veh C1QL1 (11718748_at) / RFU TMPRSS4 (11747572_a_at) / Fold change /veh TMPRSS4 (11747572_a_at) / RFU HAMP (11756126_x_at) / Fold change /veh HAMP (11756126_x_at) / RFU RNFT2 (11725882_a_at) / Fold change /veh RNFT2 (11725882_a_at) / RFU NR4A2 (11747474_a_at) / Fold change /veh NR4A2 (11747474_a_at) / RFU ABCC12 (11746883_a_at) / Fold change /veh ABCC12 (11746883_a_at) / RFU TMEM136 (11760407_x_at) / Fold change /veh TMEM136 (11760407_x_at) / RFU CLDN22 /// WWC2 (11732394_at) / Fold change /veh CLDN22 /// WWC2 (11732394_at) / RFU HLA-DPB1 (11760878_x_at) / Fold change /veh HLA-DPB1 (11760878_x_at) / RFU SPINT1 (11716480_a_at) / Fold change /veh SPINT1 (11716480_a_at) / RFU GAP43 (11754022_s_at) / Fold change /veh GAP43 (11754022_s_at) / RFU A4GNT (11735810_at) / Fold change /veh A4GNT (11735810_at) / RFU PRB3 (11715151_x_at) / Fold change /veh PRB3 (11715151_x_at) / RFU TUBB4B (11761932_at) / Fold change /veh TUBB4B (11761932_at) / RFU CAPN14 (11732068_a_at) / Fold change /veh CAPN14 (11732068_a_at) / RFU TMCC2 (11721928_a_at) / Fold change /veh TMCC2 (11721928_a_at) / RFU IRGQ (11745062_a_at) / Fold change /veh IRGQ (11745062_a_at) / RFU FAM174B (11720279_a_at) / Fold change /veh FAM174B (11720279_a_at) / RFU TMPRSS4 (11748680_a_at) / Fold change /veh TMPRSS4 (11748680_a_at) / RFU FAM212B (11763350_a_at) / Fold change /veh FAM212B (11763350_a_at) / RFU PLEKHG5 (11743358_a_at) / Fold change /veh PLEKHG5 (11743358_a_at) / RFU ZSCAN30 (11745921_a_at) / Fold change /veh ZSCAN30 (11745921_a_at) / RFU CMKLR1 (11741424_a_at) / Fold change /veh CMKLR1 (11741424_a_at) / RFU LOC101060620 /// MAPK8IP1 (11723275_at) / Fold change /veh LOC101060620 /// MAPK8IP1 (11723275_at) / RFU SPTSSB (11747773_x_at) / Fold change /veh SPTSSB (11747773_x_at) / RFU PRSS12 (11739890_at) / Fold change /veh PRSS12 (11739890_at) / RFU BIN1 (11741810_x_at) / Fold change /veh BIN1 (11741810_x_at) / RFU WNT11 (11732464_a_at) / Fold change /veh WNT11 (11732464_a_at) / RFU C10orf10 (11716521_a_at) / Fold change /veh C10orf10 (11716521_a_at) / RFU C5orf56 (11738089_at) / Fold change /veh C5orf56 (11738089_at) / RFU CYB561 (11721691_x_at) / Fold change /veh CYB561 (11721691_x_at) / RFU ANKRD19P (11752326_a_at) / Fold change /veh ANKRD19P (11752326_a_at) / RFU OR2T12 /// OR2T33 /// OR2T8 (11738714_s_at) / Fold change /veh OR2T12 /// OR2T33 /// OR2T8 (11738714_s_at) / RFU VCAN (11748164_a_at) / Fold change /veh VCAN (11748164_a_at) / RFU JSRP1 (11732532_at) / Fold change /veh JSRP1 (11732532_at) / RFU KRTAP10-11 (11738290_x_at) / Fold change /veh KRTAP10-11 (11738290_x_at) / RFU MYO3A (11730013_a_at) / Fold change /veh MYO3A (11730013_a_at) / RFU EBF3 (11725865_a_at) / Fold change /veh EBF3 (11725865_a_at) / RFU CAMK2N1 (11719241_x_at) / Fold change /veh CAMK2N1 (11719241_x_at) / RFU C5orf56 (11738088_a_at) / Fold change /veh C5orf56 (11738088_a_at) / RFU OLFML3 (11715873_a_at) / Fold change /veh OLFML3 (11715873_a_at) / RFU LOC100653217 /// NTM (11731650_a_at) / Fold change /veh LOC100653217 /// NTM (11731650_a_at) / RFU MAPK11 (11762145_a_at) / Fold change /veh MAPK11 (11762145_a_at) / RFU FIZ1 (11724087_x_at) / Fold change /veh FIZ1 (11724087_x_at) / RFU OASL (11726364_x_at) / Fold change /veh OASL (11726364_x_at) / RFU SOX15 (11748057_x_at) / Fold change /veh SOX15 (11748057_x_at) / RFU CD79A (11719716_a_at) / Fold change /veh CD79A (11719716_a_at) / RFU HIST1H1D (11736915_at) / Fold change /veh HIST1H1D (11736915_at) / RFU CASKIN2 (11723855_a_at) / Fold change /veh CASKIN2 (11723855_a_at) / RFU LOC730098 (11760151_x_at) / Fold change /veh LOC730098 (11760151_x_at) / RFU OR4N2 (11742367_at) / Fold change /veh OR4N2 (11742367_at) / RFU PRRT2 (11749266_a_at) / Fold change /veh PRRT2 (11749266_a_at) / RFU SNX32 (11753110_a_at) / Fold change /veh SNX32 (11753110_a_at) / RFU CDHR5 (11726645_a_at) / Fold change /veh CDHR5 (11726645_a_at) / RFU RCAN1 (11760418_a_at) / Fold change /veh RCAN1 (11760418_a_at) / RFU FAM167A (11723789_a_at) / Fold change /veh FAM167A (11723789_a_at) / RFU FAM26E (11764081_at) / Fold change /veh FAM26E (11764081_at) / RFU ISYNA1 (11749810_s_at) / Fold change /veh ISYNA1 (11749810_s_at) / RFU ACY1 (11761880_at) / Fold change /veh ACY1 (11761880_at) / RFU 11764098_at / Fold change /veh 11764098_at / RFU SAMD14 (11745864_x_at) / Fold change /veh SAMD14 (11745864_x_at) / RFU NPB (11741838_a_at) / Fold change /veh NPB (11741838_a_at) / RFU TMPRSS6 (11731388_a_at) / Fold change /veh TMPRSS6 (11731388_a_at) / RFU KRTAP10-2 (11738614_at) / Fold change /veh KRTAP10-2 (11738614_at) / RFU ARHGAP8 /// PRR5-ARHGAP8 (11727945_x_at) / Fold change /veh ARHGAP8 /// PRR5-ARHGAP8 (11727945_x_at) / RFU KRTAP5-7 /// NADSYN1 (11734609_at) / Fold change /veh KRTAP5-7 /// NADSYN1 (11734609_at) / RFU RASL12 (11751679_a_at) / Fold change /veh RASL12 (11751679_a_at) / RFU CDKN2B (11736163_a_at) / Fold change /veh CDKN2B (11736163_a_at) / RFU PRF1 (11729649_at) / Fold change /veh PRF1 (11729649_at) / RFU, ZNF638 /// ZNF638-IT1 / Fold change vs veh, ZNF638 /// ZNF638-IT1 / RFU, PANK3 / Fold change vs veh, PANK3 / RFU, SH3YL1 / Fold change vs veh, SH3YL1 / RFU, ZEB2 / Fold change vs veh, ZEB2 / RFU, NRIP1 / Fold change vs veh, NRIP1 / RFU, PTTG1IP / Fold change vs veh, PTTG1IP / RFU, CAPN2 / Fold change vs veh, CAPN2 / RFU, MED14 / Fold change vs veh, MED14 / RFU, SNORA58 / Fold change vs veh, SNORA58 / RFU, C1orf63 / Fold change vs veh, C1orf63 / RFU, LRRFIP1 / Fold change vs veh, LRRFIP1 / RFU, NDUFAF7 / Fold change vs veh, NDUFAF7 / RFU, SLC12A2 / Fold change vs veh, SLC12A2 / RFU, IBTK / Fold change vs veh, IBTK / RFU, ESF1 / Fold change vs veh, ESF1 / Fold change vs veh, TMEM50B / RFU, TAOK1 / Fold change vs veh, TAOK1 / RFU, ACBD3 / Fold change vs veh, ACBD3 / RFU, TMA16 / Fold change vs veh, TMA16 / RFU, RWDD3 / Fold change vs veh, RWDD3 / RFU, BCAT1 / Fold change vs veh, BCAT1 / RFU, EDEM3 / Fold change vs veh, EDEM3 / RFU, TMEM33 / Fold change vs veh, TMEM33 / RFU, WDR75 / Fold change vs veh, WDR75 / RFU, AHCTF1 / Fold change vs veh, AHCTF1 / RFU, TFRC / Fold change vs veh, TFRC / RFU, ZDHHC17 / Fold change vs veh, ZDHHC17 / RFU, NOM1 / Fold change vs veh, NOM1 / RFU, ARL8B / Fold change vs veh, ARL8B / RFU, ZBTB11 / Fold change vs veh, ZBTB11 / RFU, TAMM41 / Fold change vs veh, TAMM41 / RFU, KIAA1704 /// LOC100996395 / Fold change vs veh, KIAA1704 /// LOC100996395 / RFU, ING1 / Fold change vs veh, ING1 / RFU, TRMT61B / Fold change vs veh, TRMT61B / RFU, FUBP3 / Fold change vs veh, FUBP3 / RFU, TP53 / Fold change vs veh, TP53 / RFU, TNKS2 / Fold change vs veh, TNKS2 / RFU, ZFP14 / Fold change vs veh, ZFP14 / RFU, ACTR2 / Fold change vs veh, ACTR2 / RFU, PPP3R1 / Fold change vs veh, PPP3R1 / RFU, PIK3R1 / Fold change vs veh, PIK3R1 / RFU, HNRNPA1 / Fold change vs veh, HNRNPA1 / RFU, RNF170 / Fold change vs veh, RNF170 / RFU, ZNF28 / Fold change vs veh, ZNF28 / RFU, RNGTT / Fold change vs veh, RNGTT / RFU, OGT / Fold change vs veh, OGT / RFU, BRD1 / Fold change vs veh, BRD1 / RFU, MARS / Fold change vs veh, MARS / RFU, ZNF655 / Fold change vs veh, ZNF655 / RFU, FAHD1 / Fold change vs veh, FAHD1 / RFU, BDP1 / Fold change vs veh, BDP1 / RFU, LRRCC1 / Fold change vs veh, LRRCC1 / RFU, ARID1A / Fold change vs veh, ARID1A / RFU, ZNF146 / Fold change vs veh, ZNF146 / RFU, ZNF330 / Fold change vs veh, ZNF330 / RFU, GPN3 / Fold change vs veh, GPN3 / RFU, C9orf123 / Fold change vs veh, C9orf123 / RFU, N4BP2L2 / Fold change vs veh, N4BP2L2 / RFU, ARFIP1 / Fold change vs veh, ARFIP1 / RFU, FAM179B / Fold change vs veh, FAM179B / RFU, BCL10 / Fold change vs veh, BCL10 / RFU, UHRF1BP1L / Fold change vs veh, UHRF1BP1L / RFU, BET1 / Fold change vs veh, BET1 / RFU, CNOT2 / Fold change vs veh, CNOT2 / RFU, ZNF268 / Fold change vs veh, ZNF268 / Fold change vs veh, ZNF507 / RFU, DGCR2 / Fold change vs veh, DGCR2 / RFU, WDSUB1 / Fold change vs veh, WDSUB1 / Fold change vs veh, HSP90B1 /// MIR3652 / RFU, ADSS / Fold change vs veh, ADSS / RFU, GK / Fold change vs veh, GK / RFU, ZNF148 / Fold change vs veh, ZNF148 / RFU, TAF9 / Fold change vs veh, TAF9 / RFU, SLC1A5 / Fold change vs veh, SLC1A5 / RFU, SLMO2 / Fold change vs veh, SLMO2 / RFU, ABCC4 / Fold change vs veh, ABCC4 / RFU, LOC101060439 /// RAP1B / Fold change vs veh, LOC101060439 /// RAP1B / RFU, RFX7 / Fold change vs veh, RFX7 / RFU, GTPBP10 / Fold change vs veh, GTPBP10 / RFU, CNEP1R1 / Fold change vs veh, CNEP1R1 / RFU, BIVM-ERCC5 /// ERCC5 / Fold change vs veh, BIVM-ERCC5 /// ERCC5 / RFU, ILF3 / Fold change vs veh, ILF3 / RFU 11762660_at / Fold change /veh 11762660_at / RFU VCAN (11757783_s_at) / Fold change /veh VCAN (11757783_s_at) / RFU DDX43 (11728927_at) / Fold change /veh DDX43 (11728927_at) / RFU KRT8 (11758188_x_at) / Fold change /veh KRT8 (11758188_x_at) / RFU NKD1 (11759106_at) / Fold change /veh NKD1 (11759106_at) / RFU SRD5A1 (11742802_a_at) / Fold change /veh SRD5A1 (11742802_a_at) / RFU TPSAB1 /// TPSB2 (11721975_s_at) / Fold change /veh TPSAB1 /// TPSB2 (11721975_s_at) / RFU GSTM3 (11746129_a_at) / Fold change /veh GSTM3 (11746129_a_at) / RFU IL23R (11737362_x_at) / Fold change /veh IL23R (11737362_x_at) / RFU TMEM51 (11727254_a_at) / Fold change /veh TMEM51 (11727254_a_at) / RFU PIWIL2 (11732686_x_at) / Fold change /veh PIWIL2 (11732686_x_at) / RFU ORM1 (11744905_x_at) / Fold change /veh ORM1 (11744905_x_at) / RFU CCDC152 (11743942_at) / Fold change /veh CCDC152 (11743942_at) / RFU ECM1 (11717891_a_at) / Fold change /veh ECM1 (11717891_a_at) / RFU IL23R (11748794_a_at) / Fold change /veh IL23R (11748794_a_at) / RFU TNFAIP8L3 (11732012_x_at) / Fold change /veh TNFAIP8L3 (11732012_x_at) / RFU MBOAT4 (11741988_at) / Fold change /veh MBOAT4 (11741988_at) / RFU 11764193_at / Fold change /veh 11764193_at / RFU TMEM53 (11763286_at) / Fold change /veh TMEM53 (11763286_at) / RFU MAGEB2 (11727129_at) / Fold change /veh MAGEB2 (11727129_at) / RFU TMEM200A (11744735_a_at) / Fold change /veh TMEM200A (11744735_a_at) / RFU CCDC152 (11751479_a_at) / Fold change /veh CCDC152 (11751479_a_at) / RFU FAM211A (11726209_a_at) / Fold change /veh FAM211A (11726209_a_at) / RFU RGS16 (11746705_a_at) / Fold change /veh RGS16 (11746705_a_at) / RFU VCAN (11755009_s_at) / Fold change /veh VCAN (11755009_s_at) / RFU RHOB (11743442_s_at) / Fold change /veh RHOB (11743442_s_at) / RFU RGS16 (11720943_a_at) / Fold change /veh RGS16 (11720943_a_at) / RFU RGS16 (11720944_at) / Fold change /veh RGS16 (11720944_at) / RFU, VPS4B / Fold change vs veh, VPS4B / RFU, CREB1 / Fold change vs veh, CREB1 / RFU, DNAJC13 / Fold change vs veh, DNAJC13 / RFU, GNAQ / Fold change vs veh, GNAQ / RFU, CDK5R1 / Fold change vs veh, CDK5R1 / RFU, ZRANB3 / Fold change vs veh, ZRANB3 / RFU, CUL4A / Fold change vs veh, CUL4A / RFU, CCNY / Fold change vs veh, CCNY / RFU, UFL1 / Fold change vs veh, UFL1 / RFU, COG3 / Fold change vs veh, COG3 / RFU, DIAPH2 / Fold change vs veh, DIAPH2 / RFU, SKA2 / Fold change vs veh, SKA2 / RFU, AFF3 / Fold change vs veh, AFF3 / RFU, LMF1 / Fold change vs veh, LMF1 / RFU, IPO11 / Fold change vs veh, IPO11 / RFU, DFFB / Fold change vs veh, DFFB / RFU, FOXP1 / Fold change vs veh, FOXP1 / RFU, CARD8 / Fold change vs veh, CARD8 / RFU, STRN3 / Fold change vs veh, STRN3 / RFU, ADK / Fold change vs veh, ADK / RFU, RASSF2 / Fold change vs veh, RASSF2 / RFU, WIPF1 / Fold change vs veh, WIPF1 / RFU, LARP1B / Fold change vs veh, LARP1B / RFU, RASA1 / Fold change vs veh, RASA1 / RFU, RB1 / Fold change vs veh, RB1 / RFU, PPFIA1 / Fold change vs veh, PPFIA1 / RFU, MAT2A / Fold change vs veh, MAT2A / RFU, CCT5 / Fold change vs veh, CCT5 / RFU, WDR92 / Fold change vs veh, WDR92 / RFU, CUX1 / Fold change vs veh, CUX1 / RFU, TTC7A / Fold change vs veh, TTC7A / RFU, TMEM135 / Fold change vs veh, TMEM135 / RFU, DEPTOR / Fold change vs veh, DEPTOR / RFU, CPM / Fold change vs veh, CPM / RFU, DNAJB6 / Fold change vs veh, DNAJB6 / RFU, CACNA2D3 / Fold change vs veh, CACNA2D3 / RFU, DTX4 / Fold change vs veh, DTX4 / RFU, TFCP2 / Fold change vs veh, TFCP2 / RFU, GMCL1 /// GMCL1P1 / Fold change vs veh, GMCL1 /// GMCL1P1 / RFU, AEBP2 / Fold change vs veh, AEBP2 / RFU, SNHG1 /// SNORD22 /// SNORD25 /// SNORD26 /// SNORD27 /// SNORD28 /// SNORD29 /// SNORD31 / Fold change vs veh, SNHG1 /// SNORD22 /// SNORD25 /// SNORD26 /// SNORD27 /// SNORD28 /// SNORD29 /// SNORD31 / Fold change (Aza/veh), C12orf56 (ProbeSet 11735607_a_at) / Fold change (ACY-1035/veh), C12orf56 (ProbeSet 11735607_a_at) / Fold change (Aza/veh), FGFR1OP (ProbeSet 11751329_s_at) / Fold change (ACY-1035/veh), FGFR1OP (ProbeSet 11751329_s_at) / Fold change (Aza/veh), VPS36 (ProbeSet 11739960_a_at) / Fold change (ACY-1035/veh), VPS36 (ProbeSet 11739960_a_at) / RFU SYPL1 (11715823_x_at) / Fold change /veh SYPL1 (11715823_x_at) / RFU IGFBP7 (11715501_s_at) / Fold change /veh IGFBP7 (11715501_s_at) / RFU REEP3 (11722064_at) / Fold change /veh REEP3 (11722064_at) / RFU IGLL1 (11728026_x_at) / Fold change /veh IGLL1 (11728026_x_at): dose or concentration left out as unconfirmed
# Conditions: MV-4-11 cells, 48 hours
compound,measurement,value
Nc1ncn([C@@H]2O[C@H](CO)[C@@H](O)[C@H]2O)c(=O)n1 [azacitidine],Fold change /veh OLFML3 (11715873_a_at),0.98
